Laboratory results as given in PMC5552358, “Imidazoquinoxaline anticancer derivatives and imiquimod interact with tubulin: Characterization of molecular microtubule inhibiting mechanisms in correlation with cytotoxicity” (PLoS ONE, 2017).

Tests used:
TLR7 [1] = target: T1, TLR7 (Mus musculus, UniProt P58681); assay: NF-kB reporter HEK293 cells expressing murine TLR7 (agonism; lowest active concentration); assay type: cell-based
T1 construct: HEK-Blue-mTLR7 reporter cells
T1 sequence (P58681 27-1050): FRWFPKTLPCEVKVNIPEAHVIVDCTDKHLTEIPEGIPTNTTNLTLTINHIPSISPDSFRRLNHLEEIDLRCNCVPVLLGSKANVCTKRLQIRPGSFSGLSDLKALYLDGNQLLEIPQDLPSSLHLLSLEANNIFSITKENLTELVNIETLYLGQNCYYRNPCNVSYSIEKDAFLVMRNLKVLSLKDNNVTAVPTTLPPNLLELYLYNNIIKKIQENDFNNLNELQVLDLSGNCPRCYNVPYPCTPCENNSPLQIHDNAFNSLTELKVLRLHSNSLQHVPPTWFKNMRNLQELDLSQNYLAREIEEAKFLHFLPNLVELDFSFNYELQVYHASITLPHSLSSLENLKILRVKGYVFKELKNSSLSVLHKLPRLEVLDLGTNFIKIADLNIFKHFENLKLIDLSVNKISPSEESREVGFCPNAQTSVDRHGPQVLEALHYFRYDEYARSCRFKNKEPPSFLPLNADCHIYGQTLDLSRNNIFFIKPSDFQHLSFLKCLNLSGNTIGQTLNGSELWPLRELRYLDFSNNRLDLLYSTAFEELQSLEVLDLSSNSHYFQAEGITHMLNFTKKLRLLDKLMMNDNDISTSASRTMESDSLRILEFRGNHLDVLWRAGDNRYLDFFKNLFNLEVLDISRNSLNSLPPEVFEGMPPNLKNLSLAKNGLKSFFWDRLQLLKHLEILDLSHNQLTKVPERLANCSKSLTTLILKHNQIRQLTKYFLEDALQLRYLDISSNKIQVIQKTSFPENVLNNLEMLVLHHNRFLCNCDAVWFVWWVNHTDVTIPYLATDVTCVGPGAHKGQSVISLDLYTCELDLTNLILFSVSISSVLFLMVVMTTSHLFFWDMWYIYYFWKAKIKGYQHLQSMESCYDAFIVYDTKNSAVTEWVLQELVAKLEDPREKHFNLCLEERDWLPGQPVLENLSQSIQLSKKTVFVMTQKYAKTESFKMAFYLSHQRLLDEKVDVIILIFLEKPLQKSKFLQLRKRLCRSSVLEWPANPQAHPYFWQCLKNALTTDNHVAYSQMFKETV

TLR7 [2] = target: T2, TLR7 (Homo sapiens, UniProt Q9NYK1); assay: NF-kB reporter HEK293 cells expressing human TLR7 (agonism; lowest active concentration); assay type: cell-based
T2 construct: HEK-Blue-hTLR7 reporter cells
T2 sequence (Q9NYK1 27-1049): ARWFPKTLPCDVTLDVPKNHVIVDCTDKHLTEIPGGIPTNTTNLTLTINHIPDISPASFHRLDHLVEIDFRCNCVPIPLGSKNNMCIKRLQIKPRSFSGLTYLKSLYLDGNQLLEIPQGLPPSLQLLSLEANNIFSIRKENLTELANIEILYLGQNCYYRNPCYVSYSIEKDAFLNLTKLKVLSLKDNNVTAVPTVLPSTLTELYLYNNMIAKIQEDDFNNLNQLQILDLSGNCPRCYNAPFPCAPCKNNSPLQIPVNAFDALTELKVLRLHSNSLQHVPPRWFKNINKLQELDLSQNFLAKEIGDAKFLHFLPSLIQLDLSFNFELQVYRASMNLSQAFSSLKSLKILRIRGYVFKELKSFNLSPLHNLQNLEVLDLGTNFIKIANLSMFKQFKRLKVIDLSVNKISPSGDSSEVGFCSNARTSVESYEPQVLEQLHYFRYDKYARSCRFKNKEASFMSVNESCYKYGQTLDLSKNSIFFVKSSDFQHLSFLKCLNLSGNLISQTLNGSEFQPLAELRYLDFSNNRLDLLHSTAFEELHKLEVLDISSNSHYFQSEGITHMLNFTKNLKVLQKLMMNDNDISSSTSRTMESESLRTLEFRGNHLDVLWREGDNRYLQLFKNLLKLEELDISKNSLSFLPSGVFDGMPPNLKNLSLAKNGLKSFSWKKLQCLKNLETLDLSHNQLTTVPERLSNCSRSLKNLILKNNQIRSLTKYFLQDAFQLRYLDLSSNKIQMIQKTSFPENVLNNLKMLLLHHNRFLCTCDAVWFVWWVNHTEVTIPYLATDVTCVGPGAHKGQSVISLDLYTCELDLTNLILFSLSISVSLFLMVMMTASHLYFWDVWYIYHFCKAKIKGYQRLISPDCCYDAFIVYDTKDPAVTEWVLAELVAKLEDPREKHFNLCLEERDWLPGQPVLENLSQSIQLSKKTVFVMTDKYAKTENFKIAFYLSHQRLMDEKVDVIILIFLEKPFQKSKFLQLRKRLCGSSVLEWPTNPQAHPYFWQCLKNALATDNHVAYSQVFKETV

## CC(C)Cn1cnc2c(N)nc3ccccc3c21 [imiquimod]
TLR7 [1]
  NF-kB reporter HEK293 cells expressing murine TLR7 (agonism); lowest active conce: 4.16 µM
TLR7 [2]
  NF-kB reporter HEK293 cells expressing human TLR7 (agonism); lowest active concen: 4.16 µM
